Experimental findings from patent US6316448A, “Pyrazolo[3,4-d][1,2,3] troazines having anticonvulsant activity and process for their preparation” (priority 1999, dated 2001) are described below.

The nature of data set [1]: Anticonvulsive action, maximal electroshock (MES), mouse i.p. The format is in vivo. An excerpt: (§1) ^3) Mouse i.p.: MES = maximal electroshock, PTZ = s.c. pentetrazol
(§2) ^5) in % of the protected animals

The nature of data set [2]: Anticonvulsive action, s.c. pentetrazol (PTZ), mouse i.p. The format is in vivo.
Description: as §1, §2

The nature of data set [3]: Octanol/water partition coefficient. The class given is physicochemical. An excerpt: ^2) Octanol/water partition coefficient, n = not measured
Data set [4] is described as follows: Maximal electroshock, rat p.o. The conditions noted are these: po. The class given is in vivo. The method, then:
The compounds according to the invention were tested in vivo for their anticonvulsive action (Table 1) in mice (i.p. administration) or rats (p.o. administration) according to the internationally customary standard (Pharmac. Weekblad, Sc. Ed. 14, 132 (1992) and Antiepileptic Drugs, Third. Ed., Raven Press, New York 1989).
(§3) Analogous results were obtained for the oral action.

A short description of another data set: in vivo. Conditions: rat, po.
Description: as §3

[5] abbreviates: ip, mouse i.p., MES, 100 mg/kg, read-out: Action, % of the protected animals (MES).
Where [6] appears, read: ip, mouse i.p., s.c. pentetrazol, 100 mg/kg, read-out: Action, % of the protected animals (PTZ).
Setting [7] is: ip, mouse i.p., s.c. pentetrazol, read-out: Action, % of the protected animals (PTZ).
Where [8] appears, read: ip, mouse i.p., MES, read-out: Action, % of the protected animals (MES).

As for `O=c1[nH]nnc2nn(Cc3cccc(C(F)(F)F)c3)cc12` [Compound 6, 6-(3-trifluoromethylbenzyl)-3,6-dihydropyrazolo[3,4-d][1,2,3]triazin-4-one], the responders at 100 mg/kg in data set [1] (setting [5]) was determined as 66%; in data set [2] (setting [6]) it was 20%. This compound also yielded a logP in data set [3] of 2.02.
Take `O=c1[nH]nnc2nn(Cc3ccc(Cl)cc3)cc12` [Compound 8, 6-(4-chlorobenzyl)-3,6-dihydropyrazolo[3,4-d][1,2,3]triazin-4-one]: the responders at 300 mg/kg in data set [1] (ip, mouse i.p., MES, 300 mg/kg, read-out: Action, % of the protected animals (MES)) is 100%; in data set [2] (setting [7]), 100%. Further, the logP in data set [3] amounted to 1.88.
For the compound `O=c1[nH]nnc2nn(Cc3c(F)cccc3Cl)cc12` [Compound 9, 6-(2-chloro-6-fluorobenzyl)-3,6-dihydropyrazolo[3,4-d][1,2,3]triazin-4one], the responders at 10 mg/kg in data set [1] (ip, mouse i.p., MES, 10 mg/kg, read-out: Action, % of the protected animals (MES)) is 20%. Moreover, the responders at 100 mg/kg in data set [2] (setting [6]) worked out at 100%. Further, in data set [3], the logP is 1.38.
Turning to `Cc1c2c(=O)[nH]nnc2nn1Cc1ccccc1Cl` [Compound 10, 6-(2-chlorobenzyl)-5-methyl-3,6dihydropyrazolo[3,4-d][1,2,3]triazin-4one], in data set [1] (setting [5]), the responders at 100 mg/kg is 66%. For the same compound, in data set [2] (setting [7]), the responders at 300 mg/kg amounted to 0%.
With `O=c1[nH]nnc2nn(Cc3ccccc3)cc12` [Compound 12, 6-benzyl-3,6-dihydropyrazolo[3,4-d][1,2,3]triazin-4-one], the responders at 100 mg/kg in data set [1] (setting [5]) came out at 66%; in data set [2] (setting [6]) it was 0%.
Take `O=c1[nH]nnc2nn(Cc3ccc(F)cc3)cc12` [Compound 7, 6-(4-fluorobenzyl)-3,6-dihydropyrazolo[3,4-d][1,2,3]triazin-4-one]: the responders at 100 mg/kg in data set [1] (setting [5]) was found to be 66%. The responders at 300 mg/kg in data set [2] (setting [7]) turned out to be 100%. Also, the logP in data set [3] amounted to 1.28.
Take `O=c1[nH]nnc2nn(Cc3ccccc3C(F)(F)F)cc12` [Compound 3, 6-(2-trifluoromethylbenzyl)-3,6-dihydropyrazolo[3,4-d][1,2,3]triazin-4-one]: the responders at 30 mg/kg in data set [1] (setting [8]) amounted to 33%. Further, in data set [2] (setting [6]), the responders at 100 mg/kg is 100%. Further, the logP in data set [3] is 1.74.
Consider `NC(=O)N1c2ccccc2C=Cc2ccccc21` [Carbamazepine, reference compound], for which the results for the responders at 100 mg/kg in data set [1] (setting [5]) and in data set [2] (setting [6]) were 100% and 0%, respectively.
On to `O=c1[nH]nnc2nn(Cc3ccccc3Cl)cc12` [Compound 2, 6-(2-chlorobenzyl)-3,6-dihydropyrazolo[3,4-d][1,2,3]triazin-4-one], for which the responders at 30 mg/kg in data set [1] (setting [8]) was found to be 100%; in data set [2] (ip, mouse i.p., s.c. pentetrazol, 30 mg/kg, read-out: Action, % of the protected animals (PTZ)), 60%. This compound came in with a logP in data set [3] of 0.82. In addition, the ED50 in data set [4] stood at 3 mg/kg. Also, the TD50 in the data set “in vivo” was over 250 mg/kg.
On to `CCCC(CCC)C(=O)O` [Valproate, reference compound], for which the responders at 100 mg/kg in data set [1] (Mus musculus, ip, read-out: Action, % of the protected animals (MES)) was 0%; in data set [2] (Mus musculus, ip, read-out: Action, % of the protected animals (PTZ)) it was 30%.
With `O=c1[nH]nnc2nn(Cc3cccc(Cl)c3)cc12` [Compound 5, 6-(3-chlorobenzyl)-3,6-dihydropyrazolo[3,4-d][1,2,3]triazin-4-one], the responders at 100 mg/kg in data set [1] (setting [5]) came to 100%. Further, the responders at 300 mg/kg in data set [2] (setting [7]) is 0%. In data set [3], the logP is 1.83.
“6-(2-chloro-4-fluorobenzyl)-5-methyl-3,6-dihydropyrazolo[3,4-d][1,2,3]triazin-4-one [Compound 11]”: the “Action, % of the protected animals (MES)” value in data set [1] (mouse i.p., MES, 100 mg/kg) turned out to be 66%. Also, the “Action, % of the protected animals (PTZ)” value in data set [2] (mouse i.p., s.c. pentetrazol, 100 mg/kg) worked out at 33%.
`O=c1[nH]nnc2nn(Cc3ccccc3F)cc12` [Compound 1, 6-(2-fluorobenzyl)-3,6-dihydropyrazolo[3,4-d][1,2,3]triazin-4-one]: the responders at 30 mg/kg in data set [1] (setting [8]) came to 100%. Further, the responders at 100 mg/kg in data set [2] (setting [6]) is 66%.
On to `Cc1ccccc1Cn1cc2c(=O)[nH]nnc2n1` [Compound 4, 6-(2-methylbenzyl)-3,6-dihydropyrazolo[3,4-d][1,2,3]triazin-4-one], for which the responders at 30 mg/kg in data set [1] (setting [8]) is 100%. In addition, the responders at 300 mg/kg in data set [2] (setting [7]) amounted to 100%. Moreover, the logP in data set [3] is 0.74.
